# Measured values published in US10098895B2, “Treatment of symptoms related to neurodegenerative disorders through pharmacological dermal activation of cranial nerves” (GLIA, LLC, priority 2016, dated 2018).
# Assays:
# [1] = test system: Parkinson's disease symptoms; test: Example 1: Parkinson's disease patient, dermal application to forehead and ear conchae
# Description: A person was diagnosed with the early stages of Parkinson's disease in December of 2014. Their symptoms included tremors in the hands, impaired short term memory, slow and uncontrolled rigid movements while walking and eating, and declining ocular blink function. The patient also had dry eyes with hyper-tearing, burning, and itching.
# The patient was also treated with progesterone 1% on the forehead initially once daily beginning in March 2015. […] The progesterone was applied as needed for about a year.
# Instead of the prescribed regimen, the patient began dermal application of dronabinol 1.25 mg 2 times daily to three sites: (i) the forehead, (ii) the concha of the left ear, and (iii) the concha of the right ear. Each dose of 1.25 mg was divided equally between the three application sites. This treatment regimen began Friday Jun. 10, 2016 concurrent with the discontinuation of rasagiline.
# In February 2017, the patient, who suffers from debilitating moderate spinal stenosis, started taking Azilect (rasagiline) and carbidopa-levodopa to improve their walking and flexibility. […] The patient decided that, together with the prescribed medications, they would switch from dronabinol to topical testosterone gel applied to the forehead and ear conchae to see if this would impact their longstanding low testosterone levels.
# In March 2017, topical testosterone gel application was instituted as an adjunct to is the prescribed Azilect and carbidopa-levodopa.
# The patient voluntarily stopped topical testosterone for 3 weeks in June 2017. […] At the end of 3 weeks, topical testosterone was re-instituted as an adjunct to the prescribed medications.
# essential tremor = test: Example 7: essential tremor subject with contact lens discomfort; format: in vivo, human
# Description: A person developed persistent right hand tremors of a kinetic (non-resting) type that has been continuous over the past 6 years. […] This condition had not worsened over time. […] Initially, their doctor thought that these symptoms were stress related and they have been taking 2.5 mg of escitalopram for over 6 years. […] The subject was not on hormone replacement therapy or any other medication.
# Concomitantly, the subject suffered from uncomfortable eyes, with a sticky burning sensation and development of blurred vision after about 5-6 hours of contact lens wear. For the past 3 years, the subject was administered 1% progesterone gel (1 mg per day) by dermal application to the forehead once per night. The progesterone gel prolonged comfortable contact lens wear time with sustained visual acuity from 5-6 hours to greater than 15 hours. […] After 2 years of treatment, the benefits of progesterone dermal application persisted for at least 3 days without treatment. There was no effect of the progesterone on their tremor symptoms.
# After allowing for washout of progesterone for 3 days, they began forehead application of 0.5-0.75 mg dronabinol once daily at night.
# The dronabinol administration regimen was altered by dividing equally the once daily dose of 0.5-0.75 mg dronabinol between the conchae of the left ear, the conchae of the right ear, and the forehead. […] Comfortable contact lens wear, with ease of insertion and removal, and visual acuity extends for 15 hours or more after dronabinol application.
# Contact lens comfort wear duration was greater than 15 hours.
# In April 2017, the subject, while still being treated with 1% progesterone applied to the forehead, instituted a once-daily low dose topical testosterone applied to the forehead and ear conchae to determine if doing so would produce a beneficial impact on further tremor reduction and in particular essential tremor triggered by caffeine consumption. […] They stopped the treatment to assess whether the tremor would return to pre-testosterone treatment levels. As of August 2017, the subject is without noticeable tremor. The caffeine trigger for tremor onset, which had been recognized throughout all treatments, has not re-appeared since the completion of the 4-week testosterone treatment. The subject continues on low-dose progesterone 1% applied daily to the forehead as the only treatment.
# [2] = test system: Parkinson's disease symptoms; test: Example 2: Parkinson's disease subject, topical progesterone and testosterone; format: in vivo, human
# From the text: A person was diagnosed with Parkinson's disease in August of 2015. Notable symptoms include both resting and action tremor of the left hand and fingers, forearm, and, to a lesser extent, the right hand and the left leg. Handwriting and computer keyboard work were difficult. They had ocular symptoms associated with the disease, including dry eye disease with moderate to severe burning and grittiness, rapid blink rate, and partial blinking. They used artificial tears constantly in an attempt to alleviate the ocular symptoms. They had not been on any Parkinson's medications. Their Parkinson's tremor followed an “on-off” cycle that correlated with their stress levels, the “on” cycle being times with low stress and few symptoms, and the “off” cycle induced by stress showing an increase in symptoms.
# In late February 2017, the subject started applying single daily doses of 0.125% testosterone to the forehead and ear conchae. By the third day of treatment, the subject was tremor-free for periods of 4-6 hours, and the “on” part of the cycle was more frequent. […] The dose of testosterone was increased to 0.2% once daily in early April.
# In July 2017, testosterone application was stopped after a taper to evaluate its effects. […] On Aug. 17, 2017, they reported extreme anxiety.
# That same afternoon, the subject applied 0.2% testosterone to their forehead and ear conchae, and the next day reported less anxiety and more “on” cycles. By Aug. 20, 2017, they reported having stabilized on the once daily applications with a 60% or greater increase in “on” periods. On August 28, they reported going 9 hours without tremors and leg spasms. On Aug. 30, 2017, the subject was able to walk 8 miles and exercised in between. They described themself as feeling 100%.
# [3] = prescribed Azilect (rasagiline) together with carbidopa-levodopa
# [4] = once-daily low dose topical testosterone to forehead and ear conchae, 4 weeks, with 1% progesterone to forehead
smiles,measurement,setting,value
"C#CCN[C@@H]1CCc2ccccc21 [Azilect, rasagiline]",motor function,[1]; [3],some motor function improvement
same,tremor,[1]; [3],no more improved than when they were applying dronabinol alone
CN(C)CCC[C@@]1(c2ccc(F)cc2)OCc2cc(C#N)ccc21 [escitalopram],tremor,essential tremor; 2.5 mg of escitalopram for over 6 years,no resolution of the tremor
C[C@]12CC[C@H]3[C@@H](CCC4=CC(=O)CC[C@@]43C)[C@@H]1CC[C@@H]2O [testosterone],tremor-free days,"[2]; 0.125% testosterone once daily, mid-March",two full days tremor-free
same,tremor amplitude and resolution,[2]; 0.125% testosterone single daily doses to forehead and ear conchae,"the amplitude was less, and the tremors resolved sooner"
same,tremor-free periods,"[2]; 0.125% testosterone single daily doses to forehead and ear conchae, by the third day",4 to 6 h
same,time without tremors and leg spasms,"[2]; 0.2% testosterone once daily, August 28",9 h
same,increase in 'on' periods,"[2]; 0.2% testosterone once daily, by Aug. 20, 2017",≥ 60%
same,anxiety,"[2]; 0.2% testosterone re-applied to forehead and ear conchae, next day",less anxiety
same,symptom trend after stopping treatment,[2]; 6 weeks of testosterone abstinence,downward trend in symptoms to pre-treatment levels
same,blood total and free testosterone,"[2]; July 2017, after topical testosterone 0.125-0.2% once daily",mildly elevated total and free testosterone
same,tremors after stopping treatment,[2]; day 3 of testosterone abstinence,tremors were more frequent
same,"stress management, mood, libido","[2]; testosterone 0.2% once daily, through April 2017","improved stress management, elevated mood with increase in libido and vaginal lubrication"
same,"disease progression, assessed by neurologists","[2]; testosterone administration, no prescribed Parkinson's medications",no disease progression
same,negative side effects,"[2]; topical testosterone, February to July 2017",No negative side effects
same,overall functioning after resumption,[1]; testosterone resumed after a three week hiatus,returned immediately to the improved levels
same,"mental stability, reported by wife","[1]; testosterone to forehead and ears, one-year period up to August 2017",very positive impact on their mental stability
same,adverse events,[1]; throughout low dose neural cranial treatment,no adverse events were noted
same,cognitive and non-motor symptoms,"[1]; topical testosterone gel to forehead and ear conchae, adjunct to Azilect and carbidopa-levodopa, by the third day",improvement in cognitive and non-motor symptoms
same,cognitive and emotional function after stopping treatment,"[1]; topical testosterone stopped for 3 weeks, within 3 days",significant decline in cognitive and emotional function
same,caffeine trigger of essential tremor,essential tremor; [4],near complete resolution of the caffeine trigger
same,reduction in tremor amplitude and frequency over the original baseline,essential tremor; [4],≤ 90%
